Assay results: patent US20260317324A1, “BIFUNCTIONAL COMPOUNDS FOR DEGRADING BRAF VIA UBIQUITIN PROTEOSOME PATHWAY” (Nurix Therapeutics, Inc., priority 2023, published 2026)

Biological target: T1, BRAF V600E (Homo sapiens, UniProt P15056, V600E)
T1 construct: endogenous C-terminal HiBiT fusion tag on BRAF V600E allele; endogenous in cells; host or cells: A375 clone 1F10 (CRISPR-Cas9 knock-in of the HiBiT tag; parental A375 from ATCC)
Assay: BRAF HiBiT degradation assay, C-terminal HiBiT-tagged BRAF V600E A375 cells (clone 1F10), Nano-Glo HiBiT Lytic assay
Type: cell-based
Settings: for Dmax: A-375
From the text: An A375 cell line expressing a homozygous V600E mutation was purchased from ATCC (Manassas, VA, USA). An A375 clone 1F10 cell line with an endogenous C-terminal HiBiT fusion tag on BRAF V600E allele was generated internally using CRISPR-Cas9 technology and cultured in DMEM, high glucose supplemented with 10% FBS and 1× GlutaMAX. A HCT-116 BRAF−/− cell line overexpressing the C-terminal HiBiT-tagged G466V, G469A, and D594G mutants were generated by lentiviral transduction, externally at Biosettia Inc (San Diego, CA, USA). The stably transfected cells were cultured in RPMI media supplemented with 10% FBS, 1× GlutaMAX, and 0.25 μg/ml puromycin. DMEM medium, RPMI 1640 medium, GlutaMAX, fetal bovine serum (FBS), and puromycin were purchased from Gibco (Grand Island, NY, USA). HCT-116 BRAF−/− cells were purchased from Horizon Discovery (Waterbeach, UK).
The C-terminal HiBiT tagged BRAF A375 cells (monoclonal cell line, cell clone 1F10) were seeded at a density of 10,000 cells/well in 30 μL media (DMEM, high glucose supplemented with 10% FBS and 1× GlutaMAX) in white opaque 384-well plates (Corning #3570) from column 1 to column 23. The wildtype A375 cells were seeded in column 24 at the same cell density in 30 μL media. Cells were incubated at 37° C. with 5% CO2 for 24 h.
Intermediate compound dilution series (5-point, ranging from 5 mM to 0.5 μM, 10-fold dilutions in DMSO) were prepared in a source plate (Beckman Coulter cat. no. 001-16128). Final compound dilution series (11-point, ranging from 1 μM to 0.01 nM, half-log dilutions in DMSO) were stamped into the assay plate (Corning #3570, column 1-11 and 12-22) using the Echo Acoustic Liquid Handler (Beckman Coulter). Each compound was plated in duplicate, and the total volume of compound DMSO solution was 60 nL/well (0.2% final DMSO concentration). DMSO was included in wells A23-L23 and A24-L24. The DMSO-treated HiBiT-tagged samples served as Negative Control (NC) and the DMSO-treated wildtype samples served as Background Control (BC) for the HiBiT assay.
HiBiT signal was measured by a Nano-Glo HiBiT Lytic assay (Promega cat. no. N3050). HiBiT lytic detection reagent (Nano-Glo HiBiT Lytic Buffer with 1:50 Nano-Glo HiBiT Lytic Substrate and 1:100 LgBiT Protein, 40 μL) was added using Bravo. The mixture was incubated at room temperature, in the dark, and with gentle shaking for 10 min. Luminesce units (LU) were read on an EnVision plate reader 2105 (Perkin Elmer).
Percent protein remaining and viability remaining per sample were calculated as follows: […]
% Protein remaining values were plotted as a function of compound concentration. XC50 (DC50) values were determined by fitting curves using the following equation:
For the HiBiT degradation assay, the key parameters reported include: • The dose of compound that produces 50% degradation (DC50 at 50%): • DC50 at 50%: the Fitted X value (Conc.) at Y=50 (response) • Observed Dmax (Obs. Dmax) is the percentage protein degraded at maximal compound effect relative to DMSO-treated control: […]

[1] = A375 (BRAF V600E), DC50 at 50%: fitted conc. at Y=50
[2] = A375 (BRAF V600E), percentage protein degraded at maximal compound effect relative to DMSO

T1 sequence (P15056 whole entry V600E, the tested form may be a part): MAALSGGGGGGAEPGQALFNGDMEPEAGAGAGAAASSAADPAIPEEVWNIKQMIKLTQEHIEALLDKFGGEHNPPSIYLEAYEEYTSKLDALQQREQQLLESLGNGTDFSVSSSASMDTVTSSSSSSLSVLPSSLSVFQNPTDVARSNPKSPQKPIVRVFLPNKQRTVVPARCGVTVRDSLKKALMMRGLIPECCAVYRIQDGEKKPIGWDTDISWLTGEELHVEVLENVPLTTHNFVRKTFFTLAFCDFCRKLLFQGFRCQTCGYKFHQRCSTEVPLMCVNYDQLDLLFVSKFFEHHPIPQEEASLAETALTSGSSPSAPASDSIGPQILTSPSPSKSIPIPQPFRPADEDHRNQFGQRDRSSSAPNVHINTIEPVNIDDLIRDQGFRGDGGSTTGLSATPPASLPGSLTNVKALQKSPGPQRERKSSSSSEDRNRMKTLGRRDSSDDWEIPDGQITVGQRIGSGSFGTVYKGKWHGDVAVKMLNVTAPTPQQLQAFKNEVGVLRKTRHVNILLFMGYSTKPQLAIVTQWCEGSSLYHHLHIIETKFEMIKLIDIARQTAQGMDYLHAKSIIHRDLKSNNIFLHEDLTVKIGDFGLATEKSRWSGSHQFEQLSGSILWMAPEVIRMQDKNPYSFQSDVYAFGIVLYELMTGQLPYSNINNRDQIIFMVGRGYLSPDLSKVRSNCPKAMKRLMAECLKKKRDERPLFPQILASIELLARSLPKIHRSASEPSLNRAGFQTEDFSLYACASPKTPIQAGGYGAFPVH

| DC50 [1] [nM] | Dmax [2] [%] | DC50 (A375 (BRAF V600E, Class 1), DC50 at 50% degradation) [nM] | Dmax (A375 (BRAF V600E, Class 1), observed Dmax, % protein degraded relative to DMSO control) [%] | SMILES |
| --- | --- | --- | --- | --- |
| 50 to 500 | 30 to 70 |  |  | CCCS(=O)(=O)Nc1cccc(-c2cn(-c3ccc(C(=O)N4CCN(CC5CCN(c6ccc([C@@H]7CCC(=O)NC7=O)cc6)CC5)CC4)cc3)nc2-c2ccncc2)c1F [Compound 12, N-{3-[1-(4-{4-[(1-{4-[(3S)-2,6-dioxopiperidin-3-yl]phenyl}piperidin-4-yl)methyl]piperazine-1-carbonyl}phenyl)-3-(pyridin-4-yl)-1H-pyrazol-4-yl]-2-fluorophenyl}propane-1-sulfonamide] |
| 50 to 500 | 30 to 70 |  |  | CCCS(=O)(=O)Nc1cccc(-c2nc(C(C)(C)C)sc2-c2ccnc(NC3CC4(C3)CN(CC3CCN(CC5CCN(c6ccc(C7CCC(=O)NC7=O)cc6)CC5)CC3)C4)n2)c1F (racemic) [Compound 142, Rac-N-{3-[2-tert-butyl-5-(2-{[2-({1-[(1-{4-[(3R)-2,6-dioxopiperidin-3-yl]phenyl}piperidin-4-yl)methyl]piperidin-4-yl}methyl)-2-azaspiro[3.3]heptan-6-yl]amino}pyrimidin-4-yl)-1,3-thiazol-4-yl]-2-fluorophenyl}propane-1-sulfonamide] |
| 10 to 50 | 30 to 70 |  |  | CCCS(=O)(=O)Nc1cccc(-c2nc(C(C)(C)C)sc2-c2ccnc(NC3CC4(CCN(CC5CCN(c6ccc([C@H]7CCC(=O)NC7=O)cc6)CC5)CC4)C3)n2)c1F [Compound 133, N-(3-{2-tert-butyl-5-[2-({7-[(1-{4-[(3R)-2,6-dioxopiperidin-3-yl]phenyl}piperidin-4-yl)methyl]-7-azaspiro[3.5]nonan-2-yl}amino)pyrimidin-4-yl]-1,3-thiazol-4-yl}-2-fluorophenyl)propane-1-sulfonamide] |
| 50 to 500 | 30 to 70 |  |  | CCCS(=O)(=O)Nc1cccc(-c2nc(C(C)(C)C)sc2-c2ccnc(Nc3cccc(C4CCN(CC5(C)CCN(c6ccc(C7CCC(=O)NC7=O)cn6)CC5)CC4)c3)n2)c1F (racemic) [Compound 73, Rac-N-[3-(2-tert-butyl-5-{2-[(3-{1-[(1-{5-[(3R)-2,6-dioxopiperidin-3-yl]pyridin-2-yl}-4-methylpiperidin-4-yl)methyl]piperidin-4-yl}phenyl)amino]pyrimidin-4-yl}-1,3-thiazol-4-yl)-2-fluorophenyl]propane-1-sulfonamide] |
| 50 to 500 | 30 to 70 |  |  | CCCS(=O)(=O)Nc1cccc(-c2nc(C(C)(C)C)sc2-c2ccnc(Nc3cccc(OC4CCN(C(=O)C[C@H]5CCN(c6ccc(C7CCC(=O)NC7=O)cc6)C5)CC4)c3)n2)c1F (mixture of isomers) [Compound 91, N-(3-{2-tert-butyl-5-[2-({3-[(1-{2-[(3R)-1-{4-[(3RS)-2,6-dioxopiperidin-3-yl]phenyl}pyrrolidin-3-yl]acetyl}piperidin-4-yl)oxy]phenyl}amino)pyrimidin-4-yl]-1,3-thiazol-4-yl}-2-fluorophenyl)propane-1-sulfonamide] |
| < 10 | 30 to 70 |  |  | CCCS(=O)(=O)Nc1cccc(-c2nc(C3CCC4(CC3)CCN(C(=O)CN3CCN(c5ccc6c(c5)C(=O)N(C5CCC(=O)NC5=O)C6=O)CC3)CC4)sc2-c2ccnc(N)n2)c1F (racemic) [Compound 231, Rac-N-{3-[5-(2-aminopyrimidin-4-yl)-2-{3-[2-(4-{2-[(3R)-2,6-dioxopiperidin-3-yl]-1,3-dioxo-2,3-dihydro-1H-isoindol-5-yl}piperazin-1-yl)acetyl]-3-azaspiro[5.5]undecan-9-yl}-1,3-thiazol-4-yl]-2-fluorophenyl}propane-1-sulfonamide] |
|  |  | < 10 | > 70 | O=C1CC[C@H](c2ccc(N3CCC(CN4CCN(c5ccc(-n6cc(-c7cc(F)cc(NS(=O)(=O)N8CCCC8)c7F)c(-c7ccncc7)n6)c(F)c5)CC4)CC3)cc2)C(=O)N1 [Compound 340, N-{3-[1-(4-{4-[(1-{4-[(3R)-2,6-dioxopiperidin-3-yl]phenyl}piperidin-4-yl)methyl]piperazin-1-yl}-2-fluorophenyl)-3-(pyridin-4-yl)-1H-pyrazol-4-yl]-2,5-difluorophenyl}pyrrolidine-1-sulfonamide] |
| > 500 | 30 to 70 |  |  | CCCS(=O)(=O)Nc1cccc(-c2nc(C(C)(C)C)sc2-c2ccnc(NC3CC4(C3)CN(C(=O)CN3CCN(CCCc5cccc6c5C(=O)N(C5CCC(=O)NC5=O)C6=O)CC3)C4)n2)c1F (racemic) [Compound 148, Rac-N-[3-(2-tert-butyl-5-{2-[(2-{2-[4-(3-{2-[(3R)-2,6-dioxopiperidin-3-yl]-1,3-dioxo-2,3-dihydro-1H-isoindol-4-yl}propyl)piperazin-1-yl]acetyl}-2-azaspiro[3.3]heptan-6-yl)amino]pyrimidin-4-yl}-1,3-thiazol-4-yl)-2-fluorophenyl]propane-1-sulfonamide] |
| < 10 | > 70 |  |  | CCCS(=O)(=O)Nc1cccc(-c2nc(C)sc2-c2ccnc(Nc3ccc(C4CCN(CC5CCN(c6ccc([C@H]7CCC(=O)NC7=O)cc6)CC5)CC4)cc3)n2)c1F [Compound 63, N-[3-(5-{2-[(4-{1-[(1-{4-[(3R)-2,6-dioxopiperidin-3-yl]phenyl}piperidin-4-yl)methyl]piperidin-4-yl}phenyl)amino]pyrimidin-4-yl}-2-methyl-1,3-thiazol-4-yl)-2-fluorophenyl]propane-1-sulfonamide] |
| 50 to 500 | 30 to 70 |  |  | CCCS(=O)(=O)Nc1cccc(-c2cn(-c3ccc(OC4CCN(C(=O)C5CCN(c6ccc(C7CCC(=O)NC7=O)cn6)CC5)CC4)cc3)nc2-c2ccncc2)c1F (racemic) [Compound 5, Rac-N-{3-[1-(4-{[1-(1-{5-[(3R)-2,6-dioxopiperidin-3-yl]pyridin-2-yl}piperidine-4-carbonyl)piperidin-4-yl]oxy}phenyl)-3-(pyridin-4-yl)-1H-pyrazol-4-yl]-2-fluorophenyl}propane-1-sulfonamide] |
| < 10 | > 70 |  |  | CCCS(=O)(=O)Nc1cccc(-c2nc(C3CCN(C(=O)C4CCN(C(=O)CC5CCN(c6ccc(NC7CCC(=O)NC7=O)cc6)CC5)CC4)CC3)sc2-c2ccncn2)c1F (racemic) [Compound 184, Rac-N-(3-{2-[1-(1-{2-[1-(4-{[(3R)-2,6-dioxopiperidin-3-yl]amino}phenyl)piperidin-4-yl]acetyl}piperidine-4-carbonyl)piperidin-4-yl]-5-(pyrimidin-4-yl)-1,3-thiazol-4-yl}-2-fluorophenyl)propane-1-sulfonamide] |
| < 10 | > 70 |  |  | CCN(C)S(=O)(=O)Nc1cccc(-c2nc(C(C)(C)C)sc2-c2ccnc(Nc3ccc(N4CCN(C(=O)C5CN(c6ccc(C7CCC(=O)NC7=O)cn6)C5)CC4)cn3)n2)c1F (racemic) [Compound 53, Rac-(3S)-3-[6-(3-{4-[6-({4-[2-tert-butyl-4-(3-{[ethyl(methyl)sulfamoyl]amino}-2-fluorophenyl)-1,3-thiazol-5-yl]pyrimidin-2-yl}amino)pyridin-3-yl]piperazine-1-carbonyl}azetidin-1-yl)pyridin-3-yl]piperidine-2,6-dione] |
| 10 to 50 | > 70 |  |  | CCCS(=O)(=O)Nc1cccc(-c2cn(-c3ccc(C(=O)N4CCN(C(=O)CC5CCN(c6ccc(C7CCC(=O)NC7=O)cn6)CC5)CC4)cc3)nc2-c2ccncc2)c1F (racemic) [Compound 13, Rac-N-{3-[1-(4-{4-[2-(1-{5-[(3R)-2,6-dioxopiperidin-3-yl]pyridin-2-yl}piperidin-4-yl)acetyl]piperazine-1-carbonyl}phenyl)-3-(pyridin-4-yl)-1H-pyrazol-4-yl]-2-fluorophenyl}propane-1-sulfonamide] |
